# From article PMC6387077, “Interaction of Halictine-Related Antimicrobial Peptides with Membrane Models” (International Journal of Molecular Sciences, 2019)
# Assays:
# [1] = test system: Escherichia coli; settings: ref [19]; cited from earlier work
# Description: (§1) Table 1 Amino acid sequences, physico-chemical and biological properties (µH is the hydrophobic moment, and H represents the mean hydrophobicity, calculated according to [27]), of the studied antibacterial HAL-1 peptides. Data were taken from ref. [19]. Point mutations with respect to the natural HAL-1 peptide are underlined. The Schiffer−Edmundson wheel projection of the HAL-1 and its analogs | column: Antimicrobial Activity MIC (µM) / E.^3
# [2] = test system: Pseudomonas aeruginosa; settings: ref [19]; cited from earlier work
# Description: as §1, with “P.^4” for “E.^3”
# [3] = test system: red blood cells; settings: hemolytic activity against red blood cells; ref [19]; cited from earlier work
# Description: as §1, with “Hemolytic LC50” for “Antimicrobial Activity MIC”, “(µM)” for “(µM) / E.^3”
# [4] = test system: Bacillus subtilis; settings: ref [19]; cited from earlier work
# Description: as §1, with “B.^1” for “E.^3”
# [5] = test system: Staphylococcus aureus; settings: ref [19]; cited from earlier work
# Description: as §1, with “S.^2” for “E.^3”
# [6] = Concentration dependence of ECD and VCD spectra (aggregation); type: physicochemical; settings: aqueous solution, 100 mg/mL peptide, room temperature, ECD and VCD read-out
# Description: In order to clarify the discrepancy between the results of the peptide conformational analyses obtained by ECD and IR, we have complemented our study by a measurement of concentration dependencies of ECD spectra of the HAL-1 peptides (Figure 9). […] In order to determine the peptide conformational change induced by its high concentration more specifically, we have performed measurements of VCD spectra of the peptides (Figure 10) using the highest peptide concentration studied by ECD (i.e., 100 mg/mL). VCD measurements supported the results of ECD analysis, confirming that at high peptide concentration, HAL-1 and its analogs HAL-1/6, HAL-1/10, and HAL-1/20 spontaneously form the α-helical structure, indicated by a negative/positive VCD couplet in the amide I region. On the contrary, the HAL-1/2 analog (Figure 10b) seems to undergo a distinct conformational change, forming highly organized β-sheet aggregates (β-sheet fibrils) characterized by an intense five-peak VCD signal with the (−/−/+/−/−) sign pattern in the amide I and II region. […]
# Concentration dependence was measured for all the peptides at the given concentrations: 0.1, 10, and 100 mg/mL. […] The α-helical fraction was calculated using a two-state model. […]
# VCD spectra were measured on a dual source and dual photo-elastic modulator [67] […]
Sequence,Antimicrobial Activity MIC E. [1],Antimicrobial Activity MIC P. [2],Hemolytic LC50 [3],Antimicrobial Activity MIC B. [4],Antimicrobial Activity MIC S. [5],Aggregation at high peptide concentration [6]
"GMWSKILGHLIK [HAL-1/6, HAL-1 analog, Arg12 replaced by Lys]",7.2 µM,65.0 µM,132 µM,1.3 µM,15.8 µM,
"GMWKKILGKLIR [HAL-1/10, HAL-1 analog, Ser4 and His9 substituted by Lys]",2.3 µM,13.1 µM,>200 µM,0.8 µM,15.0 µM,
"GKWSKILGKLIR [HAL-1/20, HAL-1 analog, Met2 and His9 substituted by Lys]",2.3 µM,,>200 µM,1.7 µM,21.7 µM,
GMWSKILGHLIR [HAL-1],3.8 µM,45.0 µM,82 µM,0.8 µM,7.7 µM,
"GMWSKILGPLIR [HAL-1/2, HAL-1 analog, His9 substituted by Pro]",30.0 µM,>100 µM,>200 µM,3.6 µM,>100 µM,form β-aggregates
